≈ marks a conversion by molar mass, not a printed value. Like-named read-outs stand apart in the source and are kept apart here.
How the values were obtained:
Mtb strain H37Rv = experiment: Microplate Alamar Blue assay; format: cell-based, Mycobacterium tuberculosis; details: MABA, average of three measurements
[1] = Human liver microsomal stability; details: human liver microsomes; for Remaining (NCF = 60 min): without the NADPH cofactor
Vero cells = experiment: Cytotoxicity against Vero cells; format: cell-based, African green monkey; details: Chlorocebus sabaeus, read-out: Vero cells IC50, Vero cells
Mtb V4207 = experiment: microbe, parasite or virus in culture; format: cell-based; details: Mycobacterium tuberculosis, V4207, read-out: Mtb MIC V4207/ DS
[2] = tested on: clinically isolated strains of MDR/XDR-TB; experiment: microbe, parasite or virus in culture; format: cell-based, Mycobacterium tuberculosis

Compound | MIC (Mtb strain H37Rv) | Remaining (NCF = 60 min) [1] | also measured
CC(C)c1ccc(-c2cccc(CN3CC[Si](C)(C)CC3)n2)cc1 [Compound 13, 1-((6-(4-Isopropylphenyl)pyridin-2-yl)methyl)-4,4-dimethyl-1,4-azasilinane] | 4 to 8 µg/mL | – | –
CC(C)c1ccc(-c2cc(CN3CC[Si](C)(C)CC3)ccn2)cc1 [Compound 17, 1-((2-(4-Isopropylphenyl)pyridin-4-yl)methyl)-4,4-dimethyl-1,4-azasilinane] | 4 to 8 µg/mL | – | –
CC(C)c1ccc(-c2cc(CN3CC[Si](C)(C)CC3)ncn2)cc1 [Compound 27, 4-((4,4-Dimethyl-1,4-azasilinan-1-yl)methyl)-6-(4-isopropylphenyl)pyrimidine] | 4 to 8 µg/mL | – | –
CC(C)c1ccc(-c2ccnc(CN3CCC4(CCCC4)CC3)c2)cc1 [Compound 37, 8-((4-(4-Isopropylphenyl)pyridin-2-yl)methyl)-8-azaspiro[4.5]decane] | – | stable | –
c1ccc(-c2ccc(-c3ccnc(CN4CCC5(CCCC5)CC4)c3)cc2)cc1 [Compound 62, 8-((4-([1,1'-Biphenyl]-4-yl)pyridin-2-yl)methyl)-8-azaspiro[4.5]decane] | – | stable | IC50 (Vero cells): ≥ 16 µg/mL; MIC (Mtb V4207): 0.0039 µg/mL (≈ 0.0102 µM); MIC [2]: 0.0039 to 0.0625 µg/mL; MIC ([2]; Mycobacterium tuberculosis): 0.004 to 0.063 µg/mL (≈ 0.0105 to 0.165 µM)
c1cc(-c2ccc(-c3ccoc3)cc2)cc(CN2CCC3(CCCC3)CC2)n1 [Compound 68, 8-((4-(4-(Furan-3-yl)phenyl)pyridin-2-yl)methyl)-8-azaspiro[4.5]decane] | – | stable | –
O=C(O)Cc1ccccc1Nc1c(Cl)cccc1Cl [Diclofenac, reference compound] | – | stable | Remaining (T = 60 min) ([1]; with NADPH, after 60 min): 0.4%
C[C@]12CC[C@H]3[C@@H](CCC4=CC(=O)CC[C@@]43C)[C@@H]1CC[C@@H]2O [Testosterone, reference compound] | – | stable | –

— PMC10239758 (European journal of medicinal chemistry, 2023)
